Legend:
[1] = Dissolution of DMPC in HCl aqueous solution and nanoparticle formation by stirring; type: physicochemical
From the text: The present invention is partly based on the discovery that phosphatidylcholine nanoparticles can be formed in an aqueous solution free of an organic solvent by high energy treating the mixture of water insoluble phosphatidylcholine and an aqueous solution having a pH from 1 to 4. The present invention is also partly based on the discovery that at pH lower than pKa, the negative charge of phosphate group in phosphatidylcholine is neutralized through the protonation, which break static stacking in phosphatidylcholine crystal and improve solubility of phosphatidylcholine in an aqueous solution (scheme 1). For example, according to the experimental results of the present application, DMPC is dissolved (pKa 1.86) into 137 mM of HCl aqueous solution up to 10 mg/mL and induced aggregate and formed nanoparticles (˜30 nm) by stirring at room temperature for about 10 hours. After neutralized by NaOH, the nanoparticles were diluted to certain concentration in packing saline.
Method: DMPC was added into 135 mM of HCl and stirred overnight at room temperature to form nanoparticles (4-440 mg/mL). Then, pH was adjusted to 6-8 by 50% NaOH. The solution was diluted by PBS or Saline 14 to get certain concentration (0.1-2 mg/mL).

[2] = DMPC phosphate group; cited from earlier work

SMILES: CCCCCCCCCCCCCC(=O)OC[C@H](COP(=O)([O-])OCC[N+](C)(C)C)OC(=O)CCCCCCCCCCCCC [DMPC, Dimyristoylphosphatidylcholine]
- solubility ([1]; 137 mM HCl aqueous solution, read-out: DMPC dissolved into HCl aqueous solution (solubility)): ≤ 10000 µg/mL
- Nanoparticle size ([1]; formed by stirring at room temperature for about 10 hours in 137 mM HCl): ~30 nm
- pKa [2]: 1.86
